Test results reported in US6737383B1, “Herbicidal oxadiazolidines” (priority 1999, dated 2004).

Columns and labels:
[1] = test system: bedstraw; experiment: Test B pre/postemergence bedstraw; assay type: in vivo, Galium aparine
How it was run: (§1)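 Response is a visual 0-to-10 score relative to untreated plants, where 0 means no effect and 10 means complete control, taken twelve to sixteen days after application. Treatments went onto soil at planting and onto foliage of 1- to 4-leaf plants, using a surfactant-containing non-phytotoxic solvent.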

[2] = test system: velvetleaf; experiment: Test B pre/postemergence velvetleaf; assay type: in vivo, Abutilon theophrasti
How it was run: as §1

[3] = test system: wild oat; experiment: Test B pre/postemergence wild oat; assay type: in vivo, Avena fatua
How it was run: as §1

[4] = test system: morningglory; experiment: Test B pre/postemergence morningglory; assay type: in vivo, Ipomoea hederacea
How it was run: as §1

[5] = Postemergence, Rate 62 g/ha, scale 0 to 10, 0 is no effect, 10 is complete control
[6] = Postemergence, Rate 250 g/ha, scale 0 to 10, 0 no effect, 10 complete control
[7] = Preemergence, Rate 62 g/ha, scale 0 to 10 (0 no effect, 10 complete control)
[8] = Preemergence, Rate 125 g/ha, scale 0 to 10 (0 no effect, 10 complete control)
[9] = Preemergence, Rate 250 g/ha, scale of 0 to 10 where 0 is no effect and 10 is complete control
[10] = Rate 125 g/ha, Postemergence, scale 0 to 10, 0 no effect, 10 complete control
[11] = Rate 500 g/ha, Postemergence, scale 0 to 10, 0 no effect, 10 complete control
[12] = Preemergence, Rate 500 g/ha, scale 0 (no effect) to 10 (complete control)
[13] = Postemergence, Rate 125 g/ha, scale of 0 to 10 where 0 is no effect and 10 is complete control
[14] = Rate 250 g/ha, Postemergence, scale 0 to 10, 0 is no effect, 10 is complete control

SMILES	Bedstraw plant response rating [1, 5]	Bedstraw plant response rating [1, 7]	Plant response rating, Bedstraw [1, 8]	Plant response rating, Bedstraw [1, 9]	Velvetleaf plant response rating [2, 5]	Velvetleaf plant response rating [2, 7]	Plant response rating, Velvetleaf [2, 8]	Plant response rating, Velvetleaf [2, 9]	Velvetleaf plant response rating [2, 12]	Wild oats plant response rating [3, 5]	Wild oats plant response rating [3, 7]	Plant response rating, Wild oats [3, 8]	Plant response rating, Wild oats [3, 9]	Wild oats plant response rating [3, 12]	Wild oats plant response rating [3, 11]	Morningglory plant response rating [4, 5]	Morningglory plant response rating [4, 6]	Morningglory plant response rating [4, 7]	Plant response rating, Morningglory [4, 8]	Plant response rating, Morningglory [4, 9]	also measured
Cc1cccc(C(C)C)c1-n1c(=O)on(C(=O)N(c2ccc(Cl)cc2)C(C)C)c1=O [Compound 64]	0	0	0	0	0	0	0	0	0	0	0	0	0	0	0	0	0	0	0	0	Bedstraw plant response rating [1, 6]: 0; Bedstraw plant response rating [1, 10]: 0; Bedstraw plant response rating [1, 11]: 0; Velvetleaf plant response rating [2, 6]: 0; Velvetleaf plant response rating [2, 10]: 0; Velvetleaf plant response rating [2, 11]: 0; Wild oats plant response rating [3, 6]: 0; Wild oats plant response rating [3, 10]: 0; Morningglory plant response rating [4, 12]: 0; Morningglory plant response rating [4, 10]: 0; Morningglory plant response rating [4, 11]: 0
Cc1cccc(C(C)C)c1-n1c(=O)on(C(=O)N(c2ccc(F)cc2)C(C)C)c1=O [Compound 65]	0	0	0	2	3	0	0	0	0	0	0	0	0	0	0	0	1	0	0	0	Bedstraw plant response rating [1, 6]: 0; Bedstraw plant response rating [1, 12]: 3; Bedstraw plant response rating [1, 10]: 0; Bedstraw plant response rating [1, 11]: 0; Velvetleaf plant response rating [2, 6]: 3; Velvetleaf plant response rating [2, 10]: 3; Velvetleaf plant response rating [2, 11]: 4; Wild oats plant response rating [3, 6]: 0; Wild oats plant response rating [3, 10]: 0; Morningglory plant response rating [4, 12]: 0; Morningglory plant response rating [4, 10]: 1; Morningglory plant response rating [4, 11]: 2
CCN(Cc1ccccc1)C(=O)n1oc(=O)n(-c2c(C)cccc2C)c1=O [Compound 70]	0	0	0	0	0	0	0	0	0	0	0	0	0	0	0	0	0	0	0	0	Bedstraw plant response rating [1, 6]: 0; Bedstraw plant response rating [1, 12]: 0; Bedstraw plant response rating [1, 10]: 0; Bedstraw plant response rating [1, 11]: 0; Velvetleaf plant response rating [2, 6]: 0; Velvetleaf plant response rating [2, 10]: 0; Velvetleaf plant response rating [2, 11]: 0; Wild oats plant response rating [3, 6]: 0; Wild oats plant response rating [3, 10]: 0; Morningglory plant response rating [4, 12]: 0; Morningglory plant response rating [4, 10]: 0; Morningglory plant response rating [4, 11]: 0
CC(C)N(C(=O)n1oc(=O)n(Cc2ccccc2)c1=O)c1ccc(F)cc1F [Compound 79]	3	0	0	0	0	0	0	0	3	0	0	0	3	4	0	5	7	0	0	0	Bedstraw plant response rating [1, 6]: 7; Bedstraw plant response rating [1, 12]: 0; Bedstraw plant response rating [1, 10]: 3; Bedstraw plant response rating [1, 11]: 8; Velvetleaf plant response rating [2, 6]: 0; Velvetleaf plant response rating [2, 10]: 0; Velvetleaf plant response rating [2, 11]: 3; Wild oats plant response rating [3, 6]: 0; Wild oats plant response rating [3, 10]: 0; Morningglory plant response rating [4, 12]: 0; Morningglory plant response rating [4, 10]: 5; Morningglory plant response rating [4, 11]: 8
CC(C)N(C(=O)n1oc(=O)n(-c2cccc3c2CCCC3)c1=O)c1ccc(F)cc1 [Compound 90]	0	0	0	0	0	0	0	0	0	0	0	0	2	3	0	3	4	0	0	0	Bedstraw plant response rating [1, 12]: 0; Velvetleaf plant response rating [2, 13]: 0; Plant response rating, Velvetleaf [2, 14]: 0; Wild oats plant response rating [3, 13]: 0; Plant response rating, Wild oats [3, 14]: 0; Morningglory plant response rating [4, 13]: 3; Morningglory plant response rating [4, 12]: 0; Morningglory plant response rating [4, 11]: 4
